We go through 18 compounds from patent US9617263B2, “Phenyl-triazolo-pyridine compounds” (Eli Lilly and Company, priority 2014, dated 2017).

Each structure is given as a SMILES string.

One assay deals with hGPR40 (Homo sapiens, UniProt O14842). As to the kind of experiment: Calcium Flux Primary Assay (FLIPR, Calcium 4 Dye). Format: cell-based. Also on record: expressed in transfected cells; host or cells: HEK293. The settings on record: HEK293, HEK293 cells over expressing human GPR40; vs natural ligand linoleic acid; read-out: efficacy (maximal response compared to linoleic acid). As to the method: HEK293 cells over expressing the human GPR40 cDNA maintained in Dulbecco's modified Eagle's medium with F12 medium in 3:1 ratio supplemented with 10% FBS and 800 μg/ml geneticin at 37° C. and 5% CO2 are employed for the study. Agonist assays are performed using a Calcium 4 Dye assay kit (Molecular Devices) in the presence or absence of 0.1% fatty acid free BSA in the assay buffer (1×HBSS (Hank's Balanced Salt Solution) & 20 mM HEPES (4-(2-hydroxyethyl)-1-piperazineethanesulfonic acid). Receptor activation is measured as an increase in intracellular calcium using the Fluorometric Imaging Plate Reader (FLIPR). Maximum change in fluorescence over the base line is used to determine the agonist response. The EC50 value of the compound is calculated using Excel Fit software (version 4; IDBS) by plotting concentration vs relative fluorescence units (RFUs).

The subject of the next assay is Zucker fa/fa rats. The assay is described as follows: Acute oral glucose tolerance test (OGTT). Type of assay: in vivo, rat. Conditions: oral; Example 1 at 1, 3 and 10 mg/kg, TAK875 at 1 mg/kg; p<0.05. As to the method:
OGTTs are performed in Zucker fa/fa rats, a rodent model of insulin resistance, after 1 and 21 days of orally administered material at 1.0, 3.0 and 10 mg/kg. TAK875 at 1 mg/kg served as the positive control. The OGTTs are performed one hour post compound administration with blood samples taken for determination of glucose and insulin levels at 10, 20, 40, 60, and 120 minutes post glucose administration.

A further assay deals with Male Balb/c mice. As to the kind of experiment: Intraperitoneal glucose tolerance test (IPGTT). Format: in vivo, mouse. Conditions: 30 and 60 minute time points; Example 1 at 10, 30, 100 mg/kg oral; positive control 10 mg/kg. How it is done: To examine the ability of Examples 1 to 20 to activate GPR40 in-vivo resulting in desired glucose lowering efficacy, i.e. reduction in plasma glucose levels, an intraperitoneal glucose tolerance test (ipGTT) study is completed, and the data is shown for the compound tested below.
Male Balb/c (Albino mice) mice (8-9 weeks of age) are single housed, and fed with normal rodent chow diet and water ad libitum. Animals are weighed; randomized by body weight; and their daily body weights are recorded. Animals are dosed daily using a formulation carrying methylcellulose and tween-80. On the night before the study, animals are fasted. In the morning, animals are dosed orally with compound or vehicle alone 60 minutes prior to the glucose tolerance test (glucose 2 g/kg, i.p.). Blood glucose levels are determined from tail bleeds taken at 0, 3, 7, 15, 30, and 60 min after glucose challenge. […] Percent lowering in glucose is calculated from the AUC data of the compound with respect to the AUC of vehicle group. The test compound is orally administered at 0.3, 1.0, 3.0, 10, 30, or 100 mg/kg, and a positive control (3-[4-(2-methyl-benzyloxy)-phenyl]-hex-4-ynoic acid, see WO2005086661 (TAK875).) is administered at 10 mg/kg. […] Glucose levels are lowered at the 30, and 60 minute time points for the positive control.

hGPR40, sequence (O14842 whole entry): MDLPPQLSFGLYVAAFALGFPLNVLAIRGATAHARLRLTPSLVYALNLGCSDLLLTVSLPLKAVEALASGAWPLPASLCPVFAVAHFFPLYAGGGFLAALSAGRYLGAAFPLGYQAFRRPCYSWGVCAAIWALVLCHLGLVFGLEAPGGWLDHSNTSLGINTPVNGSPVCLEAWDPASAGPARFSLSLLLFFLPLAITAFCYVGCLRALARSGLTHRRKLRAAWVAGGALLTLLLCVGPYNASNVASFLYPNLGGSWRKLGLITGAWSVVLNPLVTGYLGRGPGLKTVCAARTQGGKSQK

Regarding `CC#C[C@@H](CC(=O)O)c1ccc(OCc2cc(-c3ccc(C(F)F)cc3)cn3ncnc23)cc1` [Example 15, (S)-3-{4-[6-(4-Difluoromethyl-phenyl)-[1,2,4]triazolo[1,5-a]pyridin-8-ylmethoxy]-phenyl}-hex-4-ynoic acid], the Emax on hGPR40 was more than 35%.

As to `CC#C[C@@H](CC(=O)O)c1ccc(OCc2cc(-c3cc(Cl)ccc3C)cn3ncnc23)cc1` [Example 12], the Emax on hGPR40 is more than 35%.

As for `CC#C[C@@H](CC(=O)O)c1ccc(OCc2cc(-c3ccc(C#N)cc3)cn3ncnc23)cc1` [Example 13, (S)-3-{4-[6-(4-Cyano-phenyl)-[1,2,4]triazolo[1,5-a]pyridin-8-ylmethoxy]-phenyl}-hex-4-ynoic acid], the Emax on hGPR40 is more than 35%. Still for that read-out and setting: then `CC#C[C@@H](CC(=O)O)c1ccc(OCc2cc(-c3ccc(OCCC(C)(C)O)cc3C)cn3ncnc23)cc1` [Example 8, (S)-3-(4-{6-[4-(3-Hydroxy-3-methyl-butoxy)-2-methyl-phenyl]-[1,2,4]triazolo[1,5-a]pyridin-8-ylmethoxy}-phenyl)-hex-4-ynoic acid], with more than 35%; and `CC#C[C@@H](CC(=O)O)c1ccc(OCc2cc(-c3c(C)cc(OC)cc3C)cn3ncnc23)cc1` [Example 5, (S)-3-{4-[6-(4-Methoxy-2,6-dimethyl-phenyl)-[1,2,4]triazolo[1,5-a]pyridin-8-ylmethoxy]-phenyl}-hex-4-ynoic acid], with more than 35%.

Turning to `CC#C[C@@H](CC(=O)O)c1ccc(OCc2cc(-c3c(C)cccc3C)cn3ncnc23)cc1` [Example 11, (S)-3-{4-[6-(2,6-Dimethyl-phenyl)-[1,2,4]triazolo[1,5-a]pyridin-8-ylmethoxy]-phenyl}-hex-4-ynoic acid], the Emax at hGPR40 is more than 35%. `CC#C[C@@H](CC(=O)O)c1ccc(OCc2cc(-c3ccc(OC)cc3C)cn3ncnc23)cc1` [Example 4, (S)-3-{4-[6-(4-Methoxy-2-methyl-phenyl)-[1,2,4]triazolo[1,5-a]pyridin-8-ylmethoxy]-phenyl}-hex-4-ynoic acid]: the Emax at hGPR40 is more than 35%. `CC#C[C@@H](CC(=O)O)c1ccc(OCc2cc(-c3ccc(OCC#N)cc3C)cn3ncnc23)cc1` [Example 16, (S)-3-{4-[6-(4-Cyanomethoxy-2-methyl-phenyl)-[1,2,4]triazolo[1,5-a]pyridin-8-ylmethoxy]-phenyl}-hex-4-ynoic acid]: the Emax at hGPR40 was more than 35%. In the case of `Cc1cc(OCCCS(C)(=O)=O)cc(C)c1-c1cccc(COc2ccc3c(c2)OC[C@H]3CC(=O)O)c1` [TAK875, fasiglifam, reference compound], the “AUCs for glucose lowering” value in the assay on Zucker fa/fa rats is “statistically significant”. In the assay with Male Balb/c mice, the “Glucose levels compared to vehicle control” value is on record as “lowered”. `CC#C[C@@H](CC(=O)O)c1ccc(OCc2cc(-c3ccc(S(C)(=O)=O)cc3)cn3ncnc23)cc1` [Example 17]: on hGPR40, the Emax was more than 35%.

On to `CC#C[C@@H](CC(=O)O)c1ccc(OCc2cc(-c3ccc(OC(F)F)cc3C)cn3ncnc23)cc1` [Example 20, (S)-3-{4-[6-(4-Difluoromethoxy-2-methyl-phenyl)-[1,2,4]triazolo[1,5-a]pyridin-8-ylmethoxy]-phenyl}-hex-4-ynoic acid], for which, at hGPR40, the Emax was more than 35%. Still for that read-out and setting: to `CC#C[C@@H](CC(=O)O)c1ccc(OCc2cc(-c3ccc(C(C)(C)C#N)cc3)cn3ncnc23)cc1` [Example 19, (S)-3-(4-{6-[4-(Cyano-dimethyl-methyl)-phenyl]-[1,2,4]triazolo[1,5-a]pyridin-8-ylmethoxy}-phenyl)-hex-4-ynoic acid] belongs more than 35%. Still for that read-out and setting: then `CC#C[C@@H](CC(=O)O)c1ccc(OCc2cc(-c3c(C)cccc3F)cn3ncnc23)cc1` [Example 3, (S)-3-{4-[6-(2-Fluoro-6-methyl-phenyl)-[1,2,4]triazolo[1,5-a]pyridin-8-ylmethoxy]-phenyl}-hex-4-ynoic acid], with more than 35%; and `CC#C[C@@H](CC(=O)O)c1ccc(OCc2cc(-c3ccc(OCCCS(C)(=O)=O)cc3C)cn3ncnc23)cc1` [Example 7, (S)-3-(4-{6-[4-(3-Methanesulfonyl-propoxy)-2-methyl-phenyl]-[1,2,4]triazolo[1,5-a]pyridin-8-ylmethoxy}-phenyl)-hex-4-ynoic acid], with more than 35%.

Take `CC#C[C@@H](CC(=O)O)c1ccc(OCc2cc(-c3ccc(S(N)(=O)=O)cc3C)cn3ncnc23)cc1` [Example 18, (S)-3-{4-[6-(2-Methyl-4-sulfamoyl-phenyl)-[1,2,4]triazolo[1,5-a]pyridin-8-ylmethoxy]-phenyl}-hex-4-ynoic acid]: the Emax at hGPR40 was more than 35%. For the compound `CC#C[C@@H](CC(=O)O)c1ccc(OCc2cc(-c3ccc(C(C)C)cc3)cn3ncnc23)cc1` [Example 9, (S)-3-{4-[6-(4-Isopropyl-phenyl)-[1,2,4]triazolo[1,5-a]pyridin-8-ylmethoxy]-phenyl}-hex-4-ynoic acid], at hGPR40, the Emax was more than 35%. For `CC#C[C@@H](CC(=O)O)c1ccc(OCc2cc(-c3ccc(OC)cc3)cn3ncnc23)cc1` [Example 2, (S)-3-{4-[6-(4-Methoxy-phenyl)-[1,2,4]triazolo[1,5-a]pyridin-8-ylmethoxy]-phenyl}-hex-4-ynoic acid], the Emax on hGPR40 was more than 35%.

Regarding `CC#C[C@@H](CC(=O)O)c1ccc(OCc2cc(-c3cc(OC)ccc3F)cn3ncnc23)cc1` [Example 6], the Emax at hGPR40 was more than 35%.
